These results are taken from ChEMBL document CHEMBL1938345, “Design, synthesis and cytotoxic activity of novel spin-labeled rotenone derivatives” (Bioorg Med Chem Lett, 2012).

≈ marks a conversion by molar mass, not a printed value.

Holding throughout (format): functional, cell-based
For test [1], the system named is KB. Description: Cytotoxicity against human KB cells by SRB assay.
A short description of test [2]: Cytotoxicity against human KBVIN cells by SRB assay.
The subject of test [3] is DU-145. The experiment in a line: Cytotoxicity against human DU145 cells by SRB assay.
Test [4] has as its system A549. The experiment in a line: Cytotoxicity against human A549 cells by SRB assay.
Setting [5] is: Homo sapiens, KB, read-out: IC50.
Where [6] appears, read: Homo sapiens, KBVIN, read-out: IC50.
[7] abbreviates: Homo sapiens, DU-145, read-out: IC50.

Consider `C=C(C)[C@H]1Cc2c(ccc3c2O[C@@H]2COc4cc(OC)c(OC)cc4[C@@H]2/C3=N\OC(=O)C2CC(C)(C)N([O])C2(C)C)O1` (some centres not stated), for which the IC50 came out at 0.56 mg/L (≈ 0.969 µM) in test [1] (kb), 0.298 mg/L (≈ 0.516 µM) in test [2] (kbvin), 0.322 mg/L (≈ 0.557 µM) in test [3] (du-145) and 0.471 mg/L (≈ 0.815 µM) in test [4] (a549).

On to `C=C(C)[C@H]1Cc2c(ccc3c2O[C@@H]2COc4cc(OC)c(OC)cc4[C@@H]2[C@@H]3OC(=O)C2=CC(C)(C)N([O])C2(C)C)O1`, for which the IC50 in test [1] (kb) was 0.273 mg/L (≈ 0.485 µM); in test [2] (kbvin), 0.075 mg/L (≈ 0.133 µM); in test [3] (du-145) it was 0.223 mg/L (≈ 0.396 µM); in test [4] (a549), 0.408 mg/L (≈ 0.725 µM).

With `C=C(C)[C@H]1Cc2c(ccc3c2O[C@@H]2COc4cc(OC)c(OC)cc4[C@@H]2[C@@H]3OC(=O)C2CC(C)(C)N([O])C2(C)C)O1` (some centres not stated), the IC50 in test [1] (kb) turned out to be 0.443 mg/L (≈ 0.785 µM); in test [2] (kbvin) it was 0.241 mg/L (≈ 0.427 µM); in test [3] (du-145), 0.277 mg/L (≈ 0.491 µM); in test [4] (a549), 0.533 mg/L (≈ 0.944 µM).

Regarding `C=C(C)[C@H]1Cc2c(ccc3c2O[C@@H]2COc4cc(OC)c(OC)cc4[C@@H]2[C@@H]3OC(=O)C2=CC(C)(C)N([O])C(C)(C)C2)O1`, the IC50 was determined as 0.427 mg/L (≈ 0.74 µM) in test [1] (kb), 0.299 mg/L (≈ 0.518 µM) in test [2] (kbvin), 0.322 mg/L (≈ 0.558 µM) in test [3] (du-145) and 0.578 mg/L (≈ 1 µM) in test [4] (a549).

Turning to `C=C(C)[C@H]1Cc2c(ccc3c2O[C@@H]2COc4cc(OC)c(OC)cc4[C@@H]2[C@@H]3OC(=O)C2CC(C)(C)N([O])C(C)(C)C2)O1`, the 50% inhibitory concentration (IC50) in test [1] (kb) came to 0.408 mg/L (≈ 0.705 µM); in test [2] (kbvin) it was 0.092 mg/L (≈ 0.159 µM); in test [3] (du-145) it was 0.266 mg/L (≈ 0.46 µM); in test [4] (a549), 0.523 mg/L (≈ 0.904 µM).

`C=C(C)[C@H]1Cc2c(ccc3c2O[C@@H]2COc4cc(OC)c(OC)cc4[C@@H]2/C3=N\OC(=O)C2=CC(C)(C)N([O])C2(C)C)O1`: the IC50 in test [1] (kb) is 0.633 mg/L (≈ 1.1 µM); in test [2] (kbvin), 0.62 mg/L (≈ 1.08 µM); in test [3] (du-145) it was 0.426 mg/L (≈ 0.74 µM); in test [4] (a549), 0.738 mg/L (≈ 1.28 µM).

Consider `C=C(C)[C@H]1Cc2c(ccc3c2O[C@@H]2COc4cc(OC)c(OC)cc4[C@@H]2/C3=N\OC(=O)C2=CC(C)(C)N([O])C(C)(C)C2)O1`, for which the IC50 came to 0.575 mg/L (≈ 0.975 µM) in test [1] (kb), 0.162 mg/L (≈ 0.275 µM) in test [2] (kbvin), 0.358 mg/L (≈ 0.607 µM) in test [3] (du-145) and 0.542 mg/L (≈ 0.919 µM) in test [4] (a549).

With `C=C(C)[C@H]1Cc2c(ccc3c2O[C@@H]2COc4cc(OC)c(OC)cc4[C@@H]2/C3=N\OC(=O)C2CC(C)(C)N([O])C(C)(C)C2)O1`, the IC50 in test [1] (kb) was determined as 0.523 mg/L (≈ 0.884 µM); in test [2] (kbvin) it was 0.358 mg/L (≈ 0.605 µM); in test [3] (du-145), 0.488 mg/L (≈ 0.825 µM); in test [4] (a549), 0.651 mg/L (≈ 1.1 µM).

Consider `C=C(C)[C@H]1Cc2c(ccc3c2O[C@@H]2COc4cc(OC)c(OC)cc4[C@@H]2[C@@H]3OC(=O)CNC(=O)OC2CC(C)(C)N([O])C(C)(C)C2)O1`, for which the IC50 in test [1] (kb) was determined as 0.51 mg/L (≈ 0.783 µM); in test [2] (kbvin), 0.41 mg/L (≈ 0.629 µM); in test [3] (du-145), 0.45 mg/L (≈ 0.69 µM); in test [4] (a549) it was 0.624 mg/L (≈ 0.957 µM).

On to `C=C(C)[C@H]1Cc2c(ccc3c2O[C@@H]2COc4cc(OC)c(OC)cc4[C@@H]2[C@@H]3OC(=O)[C@H](C)NC(=O)OC2CC(C)(C)N([O])C(C)(C)C2)O1`, for which the IC50 in test [1] (kb) stood at 0.442 mg/L (≈ 0.664 µM); in test [2] (kbvin), 0.357 mg/L (≈ 0.536 µM); in test [3] (du-145) it was 0.417 mg/L (≈ 0.626 µM); in test [4] (a549), 0.65 mg/L (≈ 0.976 µM).

For `C=C(C)[C@H]1Cc2c(ccc3c2O[C@@H]2COc4cc(OC)c(OC)cc4[C@@H]2[C@@H]3OC(=O)[C@@H](NC(=O)OC2CC(C)(C)N([O])C(C)(C)C2)C(C)C)O1`, the IC50 in test [1] (kb) amounted to 0.497 mg/L (≈ 0.716 µM); in test [2] (kbvin) it was 0.381 mg/L (≈ 0.549 µM); in test [3] (du-145), 0.451 mg/L (≈ 0.65 µM); in test [4] (a549), 0.615 mg/L (≈ 0.886 µM).

On to `C=C(C)[C@H]1Cc2c(ccc3c2O[C@@H]2COc4cc(OC)c(OC)cc4[C@@H]2[C@@H]3OC(=O)[C@H](CC(C)C)NC(=O)OC2CC(C)(C)N([O])C(C)(C)C2)O1`, for which the IC50 came to 0.483 mg/L (≈ 0.682 µM) in test [1] (kb), 0.355 mg/L (≈ 0.502 µM) in test [2] (kbvin), 0.443 mg/L (≈ 0.626 µM) in test [3] (du-145) and 0.521 mg/L (≈ 0.736 µM) in test [4] (a549).

Take `C=C(C)[C@H]1Cc2c(ccc3c2O[C@@H]2COc4cc(OC)c(OC)cc4[C@@H]2[C@@H]3OC(=O)[C@@H](NC(=O)OC2CC(C)(C)N([O])C(C)(C)C2)C(C)CC)O1` (some centres not stated): the 50% inhibitory concentration (IC50) in test [1] (kb) was 0.516 mg/L (≈ 0.729 µM); in test [2] (kbvin), 0.399 mg/L (≈ 0.564 µM); in test [3] (du-145) it was 0.396 mg/L (≈ 0.559 µM); in test [4] (a549) it was 0.649 mg/L (≈ 0.917 µM).

As to `C=C(C)[C@H]1Cc2c(ccc3c2O[C@@H]2COc4cc(OC)c(OC)cc4[C@@H]2[C@@H]3OC(=O)[C@H](Cc2ccccc2)NC(=O)OC2CC(C)(C)N([O])C(C)(C)C2)O1`, the IC50 in test [1] (kb) is 0.509 mg/L (≈ 0.686 µM); in test [2] (kbvin), 0.383 mg/L (≈ 0.516 µM); in test [3] (du-145) it was 0.462 mg/L (≈ 0.623 µM); in test [4] (a549), 0.713 mg/L (≈ 0.961 µM).

Regarding `C=C(C)[C@H]1Cc2c(ccc3c2O[C@@H]2COc4cc(OC)c(OC)cc4[C@@H]2[C@@H]3OC(=O)[C@H](Cc2c[nH]c3ccccc23)NC(=O)OC2CC(C)(C)N([O])C(C)(C)C2)O1`, the IC50 came to 0.565 mg/L (≈ 0.724 µM) in test [1] (kb), 0.414 mg/L (≈ 0.53 µM) in test [2] (kbvin), 0.477 mg/L (≈ 0.611 µM) in test [3] (du-145) and 0.631 mg/L (≈ 0.808 µM) in test [4] (a549).

As for `CC(=O)O[C@H]1C(=O)[C@@]2(C)[C@H]([C@H](OC(=O)c3ccccc3)[C@]3(O)C[C@H](OC(=O)[C@H](O)[C@@H](NC(=O)c4ccccc4)c4ccccc4)C(C)=C1C3(C)C)[C@]1(OC(C)=O)CO[C@@H]1C[C@@H]2O` [PACLITAXEL], the IC50 worked out at 0.0048 mg/L (≈ 0.00562 µM) in test [1] (setting [5]), 1.15 mg/L (≈ 1.34 µM) in test [2] (setting [6]) and 0.0037 mg/L (≈ 0.00433 µM) in test [3] (setting [7]).

As to `C=C(C)[C@H]1Cc2c(ccc3c2O[C@@H]2COc4cc(OC)c(OC)cc4[C@@H]2C3=O)O1` [ROTENONE], the IC50 in test [1] (setting [5]) is 0.513 mg/L (≈ 1.3 µM); in test [2] (setting [6]), 0.595 mg/L (≈ 1.51 µM); in test [3] (setting [7]), 0.465 mg/L (≈ 1.18 µM); in test [4] (Homo sapiens, A549, read-out: IC50), 0.901 mg/L (≈ 2.28 µM).
